Results published in the METLIN SMRT retention time set (Domingo-Almenara et al. 2019).

Assay: gradient 5% acetonitrile 3 min, to 50% in 2 min, to 85% in 15 min, held 3 min, 100 µL/min
Details: column: Zorbax Extend-C18 2.1 x 50 mm; eluents: water / acetonitrile, 0.1% formic acid
Summary of the method: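 Retention times come from adduct peaks that were picked computationally and then checked by hand. The standards, pure and pooled in mixtures of ~100 molecules, were run on a Zorbax Extend-C18 column (2.1 × 50 mm, 1.8 μm) at 100 μL/min with water and acetonitrile, each with 0.1% formic acid. Detection was by quadrupole time-of-flight mass spectrometry in positive and negative ionization mode, with a dead volume of 40 μL and a dwell volume of 900 μL.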

CCC(CN(C)Cc1ccccc1)NC(=O)CSc1nc2ccccc2n(C)c1=O (stereo not drawn)
RP-LC retention time: 653 s

CC(=O)N1CCC2(CC1)CC(N(C(=O)NC(C)C)C1CC1)CCO2 (stereo not drawn)
RP-LC retention time: 653 s

O=C(C1=CN(c2ccc(C(F)(F)F)cc2)c2cc(F)ccc2S1(=O)=O)N1CCOCC1
RP-LC retention time: 875 s

CC(=O)Nc1nsc(N2CCC(C(=O)N3CCN(c4cc(C)ccc4C)CC3)CC2)n1
RP-LC retention time: 820 s

O=C(CCc1c[nH]c2ccccc12)N1CCC(c2nc3ccccc3[nH]2)CC1
RP-LC retention time: 594 s

CN1CCN(c2nc(Nc3ccc4c(c3)OCO4)c3cnn(-c4ccccc4)c3n2)CC1
RP-LC retention time: 701 s

COCCCNC(=O)Cn1nc(-n2c(C)ccc2C)c2c(C)cc(C)nc21
RP-LC retention time: 874 s

O=C(CN1CCC(c2nc(-c3cccs3)no2)CC1)NCc1ccccc1Cl
RP-LC retention time: 690 s

Cc1cnc(C2CN(Cc3ccc(C(F)(F)F)cc3)C2)n1Cc1ccccc1
RP-LC retention time: 639 s

COc1ccc(Cl)cc1C(=O)NC1(c2nc(C)no2)CCCCC1
RP-LC retention time: 1010 s

CC(C)Cn1c(=O)c(-c2ccc(C(=O)NCCC3=CCCCC3)cc2)nc2ccccc21
RP-LC retention time: 1300 s

O=C(c1ccco1)N1CCN(c2nc(N3CCOCC3)c3n[nH]nc3n2)CC1
RP-LC retention time: 598 s

COc1ccc(N2CC(c3noc(-c4ccc(C(C)(C)C)cc4)n3)CC2=O)cc1OC (stereo not drawn)
RP-LC retention time: 1140 s

O=C(C1CC(=O)N(c2n[nH]c3ccccc23)C1)N1CCC(c2nc3ccccc3[nH]2)CC1 (stereo not drawn)
RP-LC retention time: 591 s

Cc1ccc(C)c(-c2coc(-c3ccc(N)cc3)n2)c1
RP-LC retention time: 1060 s

CC(C)n1c(=O)sc2cc(S(=O)(=O)N3CCC(C(=O)Nc4ccc(F)cc4)CC3)ccc21
RP-LC retention time: 973 s

COc1ccc(-c2ccnc3nc(CC(C)C)nn23)cc1
RP-LC retention time: 905 s

c1ccc2c(CCNc3nc(N4CCCC4)c4n[nH]nc4n3)c[nH]c2c1
RP-LC retention time: 621 s

Cc1sc(-c2cc(C(F)(F)F)[nH]n2)cc1S(=O)(=O)N1CCN(c2cccc(Cl)c2)CC1
RP-LC retention time: 1230 s

Cc1ccc(-c2csc(NC(=O)CSc3nc4c(cc3C#N)C(=O)CCC4)n2)cc1
RP-LC retention time: 583 s

O=C(c1ccn2c(-c3ccc(Cl)cc3)nnc2c1)N1CCN(c2ccccn2)CC1
RP-LC retention time: 596 s

COC(=O)c1ccc(-c2nc3cnccn3c2Nc2ccc(C)c(Br)c2)cc1
RP-LC retention time: 1040 s

CC(C)(C)NC(=O)N1CCC(N2CC3(CCCCC3)C2c2ccncc2)CC1 (stereo not drawn)
RP-LC retention time: 611 s

O=C(NCC1OCCc2ccccc21)C(=O)Nc1ccc(Br)cc1 (stereo not drawn)
RP-LC retention time: 1070 s

CCCOc1nc2ccccc2nc1N1CCCC(C(=O)Nc2cccc(C(=O)OCC)c2)C1 (stereo not drawn)
RP-LC retention time: 1340 s

Cc1ccc(-c2csc(NC(=O)c3cccs3)n2)cc1C
RP-LC retention time: 1180 s

Cc1ccc2c(NCc3ccc(Cl)cc3)c(-c3nc(C)no3)cnc2n1
RP-LC retention time: 727 s

CC(C)CNC(=O)C1CCCN(c2nc3ccsc3c(=O)n2Cc2ccc(F)cc2)C1 (stereo not drawn)
RP-LC retention time: 912 s

Cc1ccc(S(=O)(=O)N2CCC3(CC2)OCCS3)s1
RP-LC retention time: 906 s

COc1cccc(-c2nnc(Cc3nc(-c4ccccc4F)no3)o2)c1
RP-LC retention time: 1020 s

COc1ccccc1NC(=O)NCC(c1cccnc1)c1cn(C)c2ccccc12 (stereo not drawn)
RP-LC retention time: 678 s

Fc1ccc(-c2nnc(Cc3nc(-c4ccccc4F)no3)o2)cc1
RP-LC retention time: 1010 s

CCc1ccc2[nH]c3c(c(=O)c2c1)CN(CC(=O)NCc1cccc(OC)c1)CC3
RP-LC retention time: 629 s

COc1ccc(NC(=O)N(C)CCc2noc(COc3ccccc3)n2)cc1OC
RP-LC retention time: 788 s

COc1ccc(OC)c(NS(=O)(=O)c2c(C)nn(-c3ccc(-c4ccc(C)cc4)nn3)c2C)c1
RP-LC retention time: 1110 s

Cn1cc(C(=O)Nc2ccc(Cl)cc2)c2cccnc21
RP-LC retention time: 835 s

CNS(=O)(=O)c1cc(-c2nnc(-c3ccccc3)o2)ccc1OC
RP-LC retention time: 786 s

O=C(NC1CCN(c2ccccc2)C1=O)c1ccccc1Br (stereo not drawn)
RP-LC retention time: 766 s

Cc1nc(Nc2ccc(F)cn2)sc1C(=O)N1CCN(c2ncccn2)CC1
RP-LC retention time: 719 s

CC1=C(c2ccc(C)cc2)S(=O)(=O)N=C1N1CCCN(C(=O)CC(C)C)CC1
RP-LC retention time: 855 s

NC(=O)CSc1nnc(-c2ccncc2)o1
RP-LC retention time: 486 s

CCOc1ccc(-c2[nH]ncc2CNS(=O)(=O)c2ccccc2CC)cc1
RP-LC retention time: 884 s

CC1(C(=O)NC2CCCCCC2)CN(S(C)(=O)=O)CC(=O)N1Cc1cccc(F)c1 (stereo not drawn)
RP-LC retention time: 885 s

O=C(CN1CCN(Cc2ccccc2Cl)CC1)Nc1nc(-c2ccccc2)cs1
RP-LC retention time: 747 s

CCSc1nc2ccc(NS(=O)(=O)c3ccc(Cl)cc3)cc2s1
RP-LC retention time: 1070 s

CC(=O)NCCc1csc(C2CCN(C(=O)C3CCCO3)CC2)n1 (stereo not drawn)
RP-LC retention time: 581 s

Cc1noc(C)c1CCC(=O)N1CCc2nn(CC#N)c(=O)n2CC1
RP-LC retention time: 630 s

CCc1ccc(NS(=O)(=O)c2c(C)nc3sc4cc(C)ccc4n3c2=O)cc1
RP-LC retention time: 1240 s

Cc1ccn2c(NC(=O)c3cccc([N+](=O)[O-])c3)c(-c3ccc(F)cc3)nc2c1
RP-LC retention time: 863 s

COc1cccc(OC)c1-c1cc(C(=O)NC2(C(=O)O)C3CC4CC(C3)CC2C4)nn1-c1ccc(C(=O)N(C)CCCN(C)C)cc1C(C)C (stereo not drawn)
RP-LC retention time: 860 s

COc1cc(-c2noc(Cn3ncn4nc(-c5ccccc5Cl)cc4c3=O)n2)cc(OC)c1OC
RP-LC retention time: 1060 s

Cc1c(CCC(=O)N2CCC3(O)CCCCC3C2)c(=O)oc2cc(O)ccc12 (stereo not drawn)
RP-LC retention time: 652 s

CCOC(=O)C1CC(C)=C(C)CC1C(=O)O (stereo not drawn)
RP-LC retention time: 854 s

COc1ccc(C(=O)N2C[C@@H]3C[C@H](NS(C)(=O)=O)[C@H]2C3)c(C)c1
RP-LC retention time: 629 s

CN(C)c1ccc(CNC(=O)CCCn2c(=O)c3cccn3c3ccc(F)cc32)cc1
RP-LC retention time: 658 s

O=C(NCCN1CCOCC1)c1ccc2ccnc(N3CCN(C(=O)c4ccco4)CC3)c2c1
RP-LC retention time: 567 s

Cc1ccc(CC(=O)NC(C)C(=O)Nc2nc3ccccc3[nH]2)cc1 (stereo not drawn)
RP-LC retention time: 665 s

CC(C)n1cc(S(=O)(=O)Nc2cc(F)cc(F)c2)c2cccnc21
RP-LC retention time: 936 s

CCCNC(=O)C1CCN(c2ccc(SCC(=O)Nc3cc(F)ccc3F)nn2)CC1
RP-LC retention time: 670 s

CCNC(=O)C1CCCN(c2nc3ncn(CC(=O)Nc4cc(F)ccc4C)c(=O)c3s2)C1 (stereo not drawn)
RP-LC retention time: 689 s

O=C(Nc1cnc(-c2ccccc2)nc1)C1CCC1
RP-LC retention time: 856 s

COc1ccc(-c2csc3ncnc(SCc4c(C)noc4C)c23)cc1
RP-LC retention time: 1030 s

Cc1ccc(N2CCN(C(=O)c3cn4cc(Cl)ccc4n3)CC2)cc1
RP-LC retention time: 830 s

O=C(c1cc(-c2ccc(F)cc2)c[nH]1)N1CCc2ccccc21
RP-LC retention time: 1000 s

Cc1cccc(CN2CCCn3nc(C(=O)NCCCN4CCOCC4)cc3C2=O)c1
RP-LC retention time: 567 s

O=C(c1ccc2cc[nH]c2c1)N1C[C@@H]2C[C@H]1C[C@@H]2NS(=O)(=O)c1ccccc1
RP-LC retention time: 766 s

CCOc1ccc(NC(=O)Cn2ncc3c(N4CCN(c5ccccn5)CC4)ncnc32)cc1
RP-LC retention time: 624 s

COc1cc(Cl)c(C)cc1-n1ccn(Cc2c(F)cccc2Cl)c(=O)c1=O
RP-LC retention time: 855 s

Cc1cc(C)n2nc(SCC(=O)NCc3ccccc3Cl)nc2n1
RP-LC retention time: 698 s

O=C(C1CCN(c2cnc(N3CCCCC3)nc2)CC1)N1CCOCC1
RP-LC retention time: 599 s

CN1C(=O)c2cccnc2Sc2cc(NC(=O)C(C)(C)C)ccc21
RP-LC retention time: 735 s

CCOC(=O)C1CCN(C(=O)C2CCN(c3nccc(C)n3)CC2)CC1
RP-LC retention time: 662 s

COc1ccccc1N1C(=O)CC(Sc2ccccc2N)C1=O (stereo not drawn)
RP-LC retention time: 865 s

Cc1nc(-c2cccc(-c3noc(-c4ccc5cc[nH]c5c4)n3)c2)cs1
RP-LC retention time: 1230 s

CS(=O)(=O)N1CCC(OC2CCN(C(=O)c3ccc(Cl)cc3)CC2)CC1
RP-LC retention time: 767 s

CCOC(=O)C1=C(CN2CCN(c3ccccn3)CC2)NC(=O)NC1c1ccc(OC(C)C)cc1 (stereo not drawn)
RP-LC retention time: 668 s

CCOC(=O)c1cccc(NC(=O)C2CCCN(C(=O)C3Sc4ccccc4NC3=O)C2)c1 (stereo not drawn)
RP-LC retention time: 851 s

O=S(=O)(NCc1ccccc1Cl)c1c[nH]c2ncccc12
RP-LC retention time: 742 s

O=c1c(O[C@@H]2OC([C@H](O)CO)[C@H](O)[C@H]2O)c(-c2ccc(O)c(O)c2)oc2cc(O)cc(O)c12 (stereo partly drawn)
RP-LC retention time: 641 s

O=C(O)c1ccc(N2CCOCC2)c(NC(=O)c2ccc(Br)cc2)c1
RP-LC retention time: 828 s

Cc1ccc(Cl)c(Nc2ccccc2C(=O)O)c1Cl
RP-LC retention time: 1050 s

Cc1ccc(C2Cn3nnc(-c4nc(-c5cccc(Cl)c5)no4)c3CO2)c(C)c1 (stereo not drawn)
RP-LC retention time: 1400 s

COc1cccc(C(=O)N2CCN(c3ccc(-c4ccccn4)nn3)CC2)c1OC
RP-LC retention time: 586 s

CCOC(=O)c1nc(N2CCN(c3ccccn3)CC2)c2ccccc2n1
RP-LC retention time: 580 s

Cc1ccc(NC(=O)N2CCCC2c2cc(C)no2)cc1 (stereo not drawn)
RP-LC retention time: 782 s

CCCN(C(=O)CC(=O)OC)c1nc(-c2ccc(C)cc2)cs1
RP-LC retention time: 1160 s

CCCc1noc(-c2ccc3nnc(CC(=O)Nc4ccc(C)cc4F)n3c2)n1
RP-LC retention time: 940 s

Cc1ccc(Nc2nc(C(=O)NC3CCCC3)nc3ccccc23)cc1
RP-LC retention time: 853 s
